In patent US8486968B2, “Compounds” (Boehringer Ingelheim International GmbH, priority 2010, dated 2013) one finds melting point and IC50 data, which are given here for seven compounds.

Data set [1] deals with T1, mPGES-1 (Homo sapiens, UniProt O14684).
T1 sequence (O14684 1-152): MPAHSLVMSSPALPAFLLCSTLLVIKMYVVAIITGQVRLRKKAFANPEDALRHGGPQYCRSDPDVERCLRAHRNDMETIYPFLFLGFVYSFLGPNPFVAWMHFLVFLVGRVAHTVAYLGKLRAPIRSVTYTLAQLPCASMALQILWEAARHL
The data set is described as follows: A549 cell-based assay (PGE2 formation, IL-1β stimulated, 50% human serum). Also on record: host or cells: A549 cells. On the procedure: Although the enzymatic assay is a high throughput assay the disadvantage is that it uses a recombinant protein which is not in its natural environment. Accordingly a cellular assay was established in which a cell line of human origin (A549) expressing the mPGES-1 protein was used. In addition in order to mimic the situation in humans in which compounds can be bound to plasma proteins 50% human serum is added in the assay. By having the combination of testing mPGES-1 in a cellular environment and the presence of 50% human serum this assay has a higher relevance to judge the therapeutic potential of a mPGES-inhibitor than the pure enzyme assay.
A549 cells (ATCC: CCL-185) are grown to about 90% confluence in F-12K Nutrient Mixture (Kaighn's Mod. Gibco) containing 10% FBS in a humified incubator at 37° C. and 5% CO2. Cells were detached using Trypsin-EDTA. A549 cells were seeded in a 384-well collagene plate at a density of 7000 cells/well (50 μl) in F-12 medium containing 1% Penicillin-Streptomycin and 50% human serum. The cells were allowed to attach for 3-4 h. After that the cells were incubated for 20-24 h in F-12k medium supplemented with 50% human serum, 1% Penicillin-Streptomycin and containing IL-1β at a final concentration of 5 ng/ml as well as 10 nM arachidonic acid in the presence of a vehicle or a test compound. The total volume is 100 μl.
Concentrations of PGE2 in the cell free medium (10 μl) were measured using a commercially available HTRF kit from Cisbio (as described above). The PGE2 formation in the absence of test compound was taken as 100%.
IC50 values were derived from at 6-8 point titrations using conventional software.

The target of data set [2] is T1, mPGES-1. Kind of data set: mPGES-1 enzyme assay (HTRF detection of PGE2). Type of data set: biochemical. Also on record: made in house; host or cells: Rosetta E. coli (membrane/microsome fraction). On the procedure:
Microsomes from Rosetta E. coli bacteria expressing recombinant human mPGES-1 can be derived as described below:
Inoculate 5 ml LB with Ampicilin (50 μg/ml) and Chloramphenicol (34 μg/ml) with bacteria from freeze culture. Incubate 8 h at 37° C. with 200 rpm. Thereafter, inoculate 500-1000 ml LB containing Amp and Chloro with the 5 ml on culture and grow to OD640 of 0.8-1.0. Chill the culture to +4° C. before induction. Induce the culture with IPTG at a final concentration of 400 μM. Express the protein at room temp 18-23° C. with 200 rpm shaking over night.
The following steps can be performed on the following day: • 1. Spin down the cells in 250 ml centrifuge flasks for 15 min at 7000 rpm (Beckmann Coulte Avanti J-E centrifuge) • 2. Dissolve the pellet from 250 ml culture in 12.5 ml homogenization buffer • 3. (15 mM Tris-HCL pH8, 1 mM EDTA pH8, […], 2.5 mM GSH, 1 Tablet Protease inhibitor per 50 ml buffer) • 4. Disintegrate the cells by sonication, 5×10 seconds at 48% amplitude of a 750 W sonifier • 5. Add 2.5 ml MgCl2 (100 mM) and DNase 12.5 μl (0.8 mg/ml) and incubate on ice for 30 min • 6. Spin down the bacteria debris and save the supernatant, 7000 rpm for 15 min • 7. Isolate the protein containing membranes in the supernatant by ultracentrifugation 120000×g for 2 hour at 4° C. (Sorvall T880 rotor). • 8. Discard the supernatant and dissolve the pellet in 20 mM Potassium phosphate buffer pH 7.4 (KH2PO4 and K2HPO4) buffer by sonication (5×10 s, 30% of a 50 W sonifier) and aliquot the enzyme and store aliquots at −80° C.
Before each experiment is performed an aliquot of the enzyme is thawed and it can then be dissolved in 0.1 M Potassium phosphate buffer pH7.4 (KH2PO4 and K2HPO4) buffer containing 2.5 mM GSH.
The aim of this assay is the determine the affinity of a test compound for the mPGES-1 enzyme.
47 μl of recombinant human mPGES-1 (˜0.5 μg protein/well) containing microsomal suspension in a buffer containing GSH, (2.5 mmol/L L-Glutathione reduced, dissolved in 0.1 mol/L Phosphat Buffer pH 7.4) is dispensed in a 384-well plate and thereafter 1 μl of the test compound(s) is/are added and incubated for 25 minutes at room temperature. The enzyme reaction is started by the addition of 2 μl PGH2 (final conc. 2 μM) dissolved in water-free Diglyme. After 60 seconds the reaction is terminated by addition of a stop solution containing FeCl2 (10 μL 0.074 mol/l FeCl2). The samples are diluted between 1:25 in PBS (Phosphate Buffered Saline). 10 μl of the diluted samples are transferred to 384-well low volume plate. In order to quantify the amount of PGE2 that has been formed, a homogenous time resolved fluorescent (HTRF) detecting of PGE2 has been performed using a commercially available kit from Cisbio according to the manufactures recommendation. This HTRF-based assay has been described in detail (see: Goedken et al., J Biomol Screen, 2008, 13(7), 619-625). Briefly, the diluted samples are mixed with 5 μl PGE2-d2 conjungate and 5 μl anti-PGE2 cryptate conjungate. After an incubation period of the plates over night, the fluorescence is measured by the use of an appropriate microplate reader.
The fluorescence of Europium cryptate (maxex=307 nm, maxem=620 nm) and d2-PGE2 (maxex=620 nm, maxem=665 nm) are measured.
The extent of the specific HTRF is measured as a ratio of the emission intensity at 665 nm vs. that at 620 nm at an excitation puls of 320 nm. The quantification plate contains also wells with different concentrations of PGE2 as calibration curve for the calculation of the PGE2 concentrations from the HTRF ratio values.
From all mPGES enzyme assay the background is subtracted and the IC50 is calculated over a nonlinear regression with conventional software.
On the technique in general: In TR-FRET formats the signal depends on donor and acceptor labels being close together.

Where [3] appears, read: A549 cells, IL-1β 5 ng/ml, 20-24 h, Table B, read-out: mPGES-1 inhibitory effect, IC50, cell assay.
Setting [4] is: recombinant human mPGES-1 microsomes, PGH2 2 μM, Table A, read-out: mPGES-1 inhibitory effect, IC50, enzyme assay.
Where [5] appears, read: Table C comparison of enzym and cell IC50, A549 cells, read-out: Cell IC50.
The mark [6] stands for this setting: Table C comparison of enzym and cell IC50, read-out: Enzym IC50.

One may read the melting point as the temperature, or range, at which the solid turns liquid. The term IC50 denotes the point on the concentration scale where inhibition reaches its midpoint. With `CC(C)(C)C(=O)NCc1ccc(Cl)c(Nc2nc3cc(C(=O)N[C@H]4CC[C@H](C(F)(F)F)CC4)c(N4CCC(C(F)(F)F)CC4)nc3n2C2CC2)c1Cl` [Example 26], the melting point lay in the range of 198 to 200 °C. The IC50 in data set [1] (setting [3]) is 7 nM. Further, the IC50 in data set [2] (setting [4]) was 4 nM.

With `CC(C)(C)C(=O)NCc1ccc(Cl)c(Nc2nc3cc(C(=O)N[C@H]4CC[C@H](C(F)(F)F)CC4)c(N4CCC(C(F)(F)F)CC4)nc3n2CC(F)F)c1Cl` [Example 27], the melting point lay in the range of 172 to 174 °C. Moreover, the IC50 in data set [1] (setting [3]) worked out at 2 nM. Besides, the IC50 in data set [2] (setting [4]) stood at 3 nM.

In the case of `CC(C)(C)C(=O)NCc1ccc(Cl)c(Nc2nc3cc(C(=O)N[C@H]4CC[C@H](C(F)(F)F)CC4)c(N4CCC(C(F)(F)F)CC4)nc3n2CC(N)=O)c1Cl` [Example 28], the melting point lay within 189 to 191 °C. The IC50 in data set [1] (setting [3]) stood at 3 nM. For the same compound, the IC50 in data set [2] (setting [4]) was determined as 1 nM.

For the compound `Cn1c(Nc2c(Cl)ccc(CNC(=O)C(C)(C)C)c2Cl)nc2cc(C(=O)N[C@H]3CC[C@H](C(F)(F)F)CC3)c(N3CCC(C(F)(F)F)CC3)nc21` [Example 30, N-(trans-4-Trifluoromethyl-cyclohexyl)-2-{2,6-dichloro-3-[(2,2-dimethyl-propionylamino)-methyl]-phenylamino}-5-[4-trifluoromethyl-piperidinyl]-3-methyl-3H-imidazo[4,5-b]pyridine-6-carboxamide], the melting point lay within 185 to 186 °C. The IC50 in data set [1] (setting [3]) worked out at 1 nM. Further, in data set [2] (setting [4]), the IC50 came to 3 nM.

For the compound `O=C(N[C@H]1CC[C@H](C(F)(F)F)CC1)c1cc2nc(Nc3c(Cl)cc(F)cc3Cl)[nH]c2nc1OCC(F)(F)F` [reference compound], the IC50 was 43 nM in data set [1] (setting [5]) and 2 nM in data set [2] (setting [6]).

Turning to `Cn1c(Nc2c(F)cccc2Cl)nc2cc(C(=O)Nc3ccc(Br)cc3)c(OCC(F)F)nc21` [reference compound], the IC50 turned out to be 72 nM in data set [1] (setting [5]) and 2 nM in data set [2] (setting [6]).

As for `Cn1c(Nc2cc(CNC(=O)C3(C(F)(F)F)CC3)ccc2Cl)nc2cc(C(=O)Nc3ccc(F)c(Cl)c3)c(OCC(F)F)cc21` [reference compound], the IC50 came to 8 nM in data set [1] (setting [5]) and 1 nM in data set [2] (setting [6]).
